Legend:
velvetleaf = test: Test B pre/postemergence velvetleaf; format: in vivo, Abutilon theophrasti
Outline: (§1)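 Response is a visual 0-to-10 score relative to untreated plants, where 0 means no effect and 10 means complete control, taken twelve to sixteen days after application. Treatments went onto soil at planting and onto foliage of 1- to 4-leaf plants, using a surfactant-containing non-phytotoxic solvent.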

corn = test: Test B pre/postemergence corn; format: in vivo, Zea mays
Outline: as §1

rape = test: Test B pre/postemergence rape; format: in vivo, Brassica napus
Outline: as §1

cocklebur = test: Test B pre/postemergence cocklebur; format: in vivo, Xanthium strumarium
Outline: as §1

surinam grass = test: Test B pre/postemergence surinam grass; format: in vivo, Brachiaria decumbens
Outline: as §1

sugar beet = test: Test B pre/postemergence sugar beet; format: in vivo, Beta vulgaris
Outline: as §1

crabgrass = test: Test B pre/postemergence crabgrass; format: in vivo, Digitaria sanguinalis
Outline: as §1

wild oat = test: Test B pre/postemergence wild oat; format: in vivo, Avena fatua
Outline: as §1

blackgrass = test: Test B pre/postemergence blackgrass; format: in vivo, Alopecurus myosuroides
Outline: as §1

purple nutsedge = test: Test B pre/postemergence purple nutsedge; format: in vivo, Cyperus rotundus
Outline: as §1

soybean = test: Test B pre/postemergence soybean; format: in vivo, Glycine max
Outline: as §1

giant foxtail = test: Test B pre/postemergence giant foxtail; format: in vivo, Setaria faberii
Outline: as §1

pigweed = test: Test B pre/postemergence pigweed; format: in vivo, Amaranthus retroflexus
Outline: as §1

wheat = test: Test B pre/postemergence wheat; format: in vivo, Triticum aestivum
Outline: as §1

morningglory = test: Test B pre/postemergence morningglory; format: in vivo, Ipomoea hederacea
Outline: as §1

bedstraw = test: Test B pre/postemergence bedstraw; format: in vivo, Galium aparine; conditions: for Bedstraw plant response rating: scale 0 to 10, 0 is no effect, 10 is complete control
Outline: as §1

[1] = Postemergence, Rate 62 g/ha, scale of 0 to 10, 0 is no effect, 10 is complete control
[2] = Postemergence, Rate 125 g/ha, scale 0 to 10, 0 is no effect, 10 is complete control
[3] = Postemergence, Rate 500 g/ha, scale 0 to 10, 0 is no effect, 10 is complete control
[4] = Preemergence, Rate 62 g/ha, scale of 0 to 10 where 0 is no effect and 10 is complete control
[5] = Preemergence, Rate 125 g/ha, scale 0 to 10, 0 is no effect, 10 is complete control
[6] = Preemergence, Rate 500 g/ha, scale of 0 to 10 where 0 is no effect and 10 is complete control
[7] = Postemergence, Rate 250 g/ha, scale 0 to 10
[8] = Preemergence, Rate 250 g/ha, scale 0 to 10, 0 is no effect, 10 is complete control

CC(C)N(C(=O)n1oc(=O)n(C(C)C(=O)c2ccccc2)c1=O)c1ccc(F)cc1F (stereo not drawn) [Compound 511]
8: Redroot pigweed plant response rating (pigweed; [6]) | Bedstraw plant response rating (bedstraw; Postemergence, Rate 125 g/ha)
4: Plant response rating, Rape (rape; [3]) | Soybean plant response rating (soybean; [2]) | Plant response rating, Soybean (soybean; [3]) | Plant response rating, Redroot pigweed (pigweed; [4]) | Morningglory plant response rating (morningglory; [1]) | Morningglory plant response rating (morningglory; [2])
6: Crabgrass plant response rating (crabgrass; [5]) | Redroot pigweed plant response rating (pigweed; [2]) | Redroot pigweed plant response rating (pigweed; [5])
5: Plant response rating, Crabgrass (crabgrass; [4]) | Plant response rating, Giant foxtail (giant foxtail; [4]) | Redroot pigweed plant response rating (pigweed; [1]) | Plant response rating, Morningglory (morningglory; [3])
3: Plant response rating, B. signalgrass (surinam grass; [3]) | Crabgrass plant response rating (crabgrass; [1]) | Crabgrass plant response rating (crabgrass; [2]) | Giant foxtail plant response rating (giant foxtail; [1]) | Giant foxtail plant response rating (giant foxtail; [2])
0: Velvetleaf plant response rating (velvetleaf; [1]) | Plant response rating, Velvetleaf (velvetleaf; [4]) | Velvetleaf plant response rating (velvetleaf; [5]) | Velvetleaf plant response rating (velvetleaf; [6]) | Corn plant response rating (corn; [1]) | Corn plant response rating (corn; [2]) | Corn plant response rating (corn; [7]) | Plant response rating, Corn (corn; [3]) | Plant response rating, Corn (corn; [4]) | Corn plant response rating (corn; [5]) | Corn plant response rating (corn; [6]) | Rape plant response rating (rape; [1]) | Plant response rating, Rape (rape; [4]) | Rape plant response rating (rape; [5]) | Rape plant response rating (rape; [6]) | Cocklebur plant response rating (cocklebur; [1]) | Cocklebur plant response rating (cocklebur; [2]) | Cocklebur plant response rating (cocklebur; [7]) | Plant response rating, Cocklebur (cocklebur; [3]) | Plant response rating, Cocklebur (cocklebur; [4]) | Cocklebur plant response rating (cocklebur; [5]) | Cocklebur plant response rating (cocklebur; [8]) | Cocklebur plant response rating (cocklebur; [6]) | B. signalgrass plant response rating (surinam grass; [1]) | B. signalgrass plant response rating (surinam grass; [2]) | B. signalgrass plant response rating (surinam grass; Postemergence, Rate 250 g/ha, scale 0 to 10, 0 no effect, 10 complete control) | Plant response rating, B. signalgrass (surinam grass; [4]) | B. signalgrass plant response rating (surinam grass; [5]) | B. signalgrass plant response rating (surinam grass; [8]) | B. signalgrass plant response rating (surinam grass; Preemergence, Rate 500 g/ha, scale 0 to 10, 0 is no effect, 10 is complete control) | Sugarbeets plant response rating (sugar beet; [1]) | Sugarbeets plant response rating (sugar beet; [2]) | Plant response rating, Sugarbeets (sugar beet; [4]) | Sugarbeets plant response rating (sugar beet; [5]) | Sugarbeets plant response rating (sugar beet; [6]) | Wild oats plant response rating (wild oat; [1]) | Wild oats plant response rating (wild oat; [2]) | Plant response rating, Wild oats (wild oat; [3]) | Plant response rating, Wild oats (wild oat; [4]) | Wild oats plant response rating (wild oat; [5]) | Blackgrass plant response rating (blackgrass; [1]) | Blackgrass plant response rating (blackgrass; [2]) | Blackgrass plant response rating (blackgrass; [7]) | Plant response rating, Blackgrass (blackgrass; [4]) | Blackgrass plant response rating (blackgrass; [5]) | Blackgrass plant response rating (blackgrass; [8]) | Blackgrass plant response rating (blackgrass; [6]) | Nutsedge plant response rating (purple nutsedge; [1]) | Nutsedge plant response rating (purple nutsedge; [2]) | Plant response rating, Nutsedge (purple nutsedge; [3]) | Plant response rating, Nutsedge (purple nutsedge; [4]) | Nutsedge plant response rating (purple nutsedge; [5]) | Nutsedge plant response rating (purple nutsedge; [6]) | Plant response rating, Soybean (soybean; [4]) | Soybean plant response rating (soybean; [5]) | Soybean plant response rating (soybean; [6]) | Wheat plant response rating (wheat; [1]) | Wheat plant response rating (wheat; [2]) | Plant response rating, Wheat (wheat; [3]) | Plant response rating, Wheat (wheat; [4]) | Wheat plant response rating (wheat; [5]) | Wheat plant response rating (wheat; [6]) | Plant response rating, Morningglory (morningglory; [4]) | Morningglory plant response rating (morningglory; [5]) | Morningglory plant response rating (morningglory; [6]) | Plant response rating, Bedstraw (bedstraw; [4]) | Bedstraw plant response rating (bedstraw; Preemergence, Rate 125 g/ha) | Bedstraw plant response rating (bedstraw; Preemergence, Rate 250 g/ha) | Bedstraw plant response rating (bedstraw; Preemergence, Rate 500 g/ha)
1: Velvetleaf plant response rating (velvetleaf; [2]) | Rape plant response rating (rape; [2]) | Soybean plant response rating (soybean; [1])
7: Crabgrass plant response rating (crabgrass; [7]) | Plant response rating, Redroot pigweed (pigweed; [3])
10: Crabgrass plant response rating (crabgrass; [6]) | Giant foxtail plant response rating (giant foxtail; [6])
9: Plant response rating, Crabgrass (crabgrass; [3]) | Plant response rating, Giant foxtail (giant foxtail; [3])
2: Plant response rating, Velvetleaf (velvetleaf; [3]) | Plant response rating, Sugarbeets (sugar beet; [3]) | Wild oats plant response rating (wild oat; [6]) | Plant response rating, Blackgrass (blackgrass; [3])

Reference: patent US6737383B1, “Herbicidal oxadiazolidines” (priority 1999, dated 2004)
